Test results from ChEMBL document CHEMBL1201862, “PubChem BioAssay data set” (2004).
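Five concentrations, 48 hours, 96-well plates. GI50 = concentration required for 50% inhibition of growth.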 Activity calls are given as the source filed them. No stated cut-off is given here; in the data, active = GI50 up to about 1.1 µM and inactive = higher.

Columns and labels:
Assay in all cases: inhibition of tumour cell growth, NCI panel, 48 h
MDA-N = test system: MDA-N
U-251 = test system: U-251
A498 = test system: A498
HCT-15 = test system: HCT-15
MDA-MB-435 = test system: MDA-MB-435
LOX IMVI = test system: LOX IMVI
M14 = test system: M14
SK-MEL-5 = test system: SK-MEL-5
SR = test system: SR
SN12C = test system: SN12C
OVCAR-4 = test system: OVCAR-4
CCRF-CEM = test system: CCRF-CEM
OVCAR-5 = test system: OVCAR-5
DU-145 = test system: DU-145
HCT-116 = test system: HCT-116
SF-295 = test system: SF-295
SNB-75 = test system: SNB-75
UACC-257 = test system: UACC-257
NCI-H460 = test system: NCI-H460
Malme-3M = test system: Malme-3M

Compound | GI50 (MDA-N) | GI50 (U-251) | GI50 (A498) | GI50 (HCT-15) | GI50 (MDA-MB-435) | GI50 (LOX IMVI) | GI50 (M14) | GI50 (SK-MEL-5) | GI50 (SR) | GI50 (SN12C) | GI50 (OVCAR-4) | GI50 (CCRF-CEM) | GI50 (OVCAR-5) | GI50 (DU-145) | GI50 (HCT-116) | GI50 (SF-295) | GI50 (SNB-75) | GI50 (UACC-257) | GI50 (NCI-H460) | GI50 (Malme-3M)
O=C(O)CCc1c2ccc(=O)c(O)c-2oc2c(O)c(O)ccc12 | 16.3 µM (inactive) | 30.1 µM (inactive) | 46.7 µM (inactive) | 79.4 µM | 17.1 µM (inactive) | 20.1 µM (inactive) | > 100 µM (inactive) | > 100 µM (inactive) | 37.2 µM (inactive) | 15.9 µM (inactive) | 46.2 µM (inactive) | 2.29 µM (inactive) | > 100 µM (inactive) | > 100 µM (inactive) | 18.9 µM (inactive) | 30.7 µM (inactive) | 24.9 µM (inactive) | > 100 µM (inactive) | > 100 µM (inactive) | 26.4 µM (inactive)
C1COCCN1.CN(C)c1ccc(-c2c(C#N)c(N)nc(S)c2C#N)cc1 | 54.1 µM (inactive) | > 100 µM (inactive) | 24.9 µM (inactive) | > 100 µM | 83.4 µM (inactive) | 80.2 µM (inactive) | 34 µM (inactive) | 44.7 µM (inactive) | 23.2 µM (inactive) | 66.2 µM (inactive) | 35 µM (inactive) | 38.5 µM (inactive) | > 100 µM (inactive) | > 100 µM (inactive) | > 100 µM (inactive) | 61 µM (inactive) | 34.3 µM (inactive) | 82.4 µM (inactive) | 40.2 µM (inactive) | > 100 µM (inactive)
c1c[nH]c(-c2cccc3nsnc23)c1 | > 100 µM (inactive) | > 100 µM (inactive) | 61.7 µM (inactive) | 15.7 µM | > 100 µM (inactive) | 63.1 µM (inactive) | > 100 µM (inactive) | > 100 µM (inactive) | 25.1 µM (inactive) | 94.2 µM (inactive) | 38.8 µM (inactive) | 93.1 µM (inactive) | 31.8 µM (inactive) | > 100 µM (inactive) | 59.7 µM (inactive) | > 100 µM (inactive) | 49.4 µM (inactive) | > 100 µM (inactive) | 65.2 µM (inactive) | > 100 µM (inactive)
Cc1cccc(/C=N/NC(=S)NCc2ccccn2)n1 | 47.2 µM (inactive) | 20.7 µM (inactive) | 49.2 µM (inactive) | 23.7 µM | 36.9 µM (inactive) | 14.7 µM (inactive) | 18.6 µM (inactive) | 17.7 µM (inactive) | 38.9 µM (inactive) | 30.6 µM (inactive) | > 100 µM (inactive) | 24.2 µM (inactive) | > 77.1 µM (inactive) | 15.1 µM (inactive) | 29.4 µM (inactive) | 27.5 µM (inactive) | 17.6 µM (inactive) | 41.7 µM (inactive) | 15.9 µM (inactive) | 22.1 µM (inactive)
CN1C(=O)N/C(=C\c2ccc(S(=O)(=O)N/N=C\C(O)C(O)C(O)CO)cc2)C1=O (stereo not given) | > 100 µM (inactive) | > 100 µM (inactive) | > 100 µM (inactive) | > 100 µM | > 100 µM (inactive) | > 100 µM (inactive) | > 100 µM (inactive) | > 100 µM (inactive) | > 100 µM (inactive) | > 100 µM (inactive) | > 100 µM (inactive) | > 100 µM (inactive) | > 100 µM (inactive) | > 100 µM (inactive) | > 100 µM (inactive) | > 100 µM (inactive) | > 100 µM (inactive) | > 100 µM (inactive) | > 100 µM (inactive) | > 100 µM (inactive)
